Measured values published in BindingDB's records for doi:10.1016/j.bmcl.2006.10.060 (Merck Research Laboratories, 2007).

Assay: Antagonist activity against human CCR2 receptor assessed as inhibition of MCP1-induced migration of human peripheral blood monocytes

Compared with `CCN(CC)CCCC(C)NC(=O)CCNc1cc(-c2cc(Cl)cc(Cl)c2)nn1-c1ccc2ccccc2c1` (stereo unspecified) [3-(3-(3,5-dichlorophenyl)-1-(naphthalen-2-yl)-1H-pyrazol-5-ylamino)-N-(5-(diethylamino)pentan-2-yl)propanamide], `CCN(CC)CCCC(C)NC(=O)CCOc1cc(-c2cc(Cl)cc(Cl)c2)nn1-c1ccc2ccccc2c1` (stereo unspecified) [3-(3-(3,5-dichlorophenyl)-1-(naphthalen-2-yl)-1H-pyrazol-5-yloxy)-N-(5-(diethylamino)pentan-2-yl)propanamide] is 5.2-fold higher in IC50: 0.054 µM for the first, 0.28 µM for the second.

`CCN(CC)CCCC(CC(C)C)NC(=O)CCOc1cc(-c2cc(Cl)cc(Cl)c2)nn1-c1ccc2ccccc2c1` (stereo unspecified) [3-(3-(3,5-dichlorophenyl)-1-(naphthalen-2-yl)-1H-pyrazol-5-yloxy)-N-(1-(diethylamino)-6-methylheptan-4-yl)propanamide] and `CCC(C)CC(CCCN(CC)CC)NC(=O)CCOc1cc(-c2cc(Cl)cc(Cl)c2)nn1-c1ccc2ccccc2c1` (stereo unspecified) [3-(3-(3,5-dichlorophenyl)-1-(naphthalen-2-yl)-1H-pyrazol-5-yloxy)-N-(1-(diethylamino)-6-methyloctan-4-yl)propanamide] are within 1.5-fold of each other in IC50: 0.178 µM for the first, 0.225 µM for the second.

First: CCCC(CCCN(CC)CC)NC(=O)CCOc1cc(-c2cc(Cl)cc(Cl)c2)nn1-c1ccc2ccccc2c1 (stereo unspecified) [3-(3-(3,5-dichlorophenyl)-1-(naphthalen-2-yl)-1H-pyrazol-5-yloxy)-N-(1-(diethylamino)heptan-4-yl)propanamide]
Second: CCC(CCCN(CC)CC)NC(=O)CCOc1cc(-c2cc(Cl)cc(Cl)c2)nn1-c1ccc2ccccc2c1 (stereo unspecified) [3-(3-(3,5-dichlorophenyl)-1-(naphthalen-2-yl)-1H-pyrazol-5-yloxy)-N-(6-(diethylamino)hexan-3-yl)propanamide]
The IC50 of the first is 1.9-fold higher: 0.154 µM for the first, 0.083 µM for the second.

Going from `CCN(CC)CCCC(NC(=O)CCOc1cc(-c2cc(Cl)cc(Cl)c2)nn1-c1ccc2ccccc2c1)C(C)C` (stereo unspecified) [3-(3-(3,5-dichlorophenyl)-1-(naphthalen-2-yl)-1H-pyrazol-5-yloxy)-N-(6-(diethylamino)-2-methylhexan-3-yl)propanamide] to `COC(=O)[C@H](CCCN=C(N)N)NC(=O)CCOc1cc(-c2cc(Cl)cc(Cl)c2)nn1-c1ccc2ccccc2c1` [(S)-2-{3-[5-(3,5-dichloro-phenyl)-2-naphthalen-2-yl-2H-pyrazol-3-yloxy]-propionylamino}-5-guanidino-pentanoic acid methyl ester], the IC50 rises from 0.032 µM to 0.118 µM (3.7-fold).

First: O=C(CCCc1cc(-c2cc(Cl)cc(Cl)c2)nn1-c1ccc2ccccc2c1)NCCCc1ccncc1 [4-(3-(3,5-dichlorophenyl)-1-(naphthalen-2-yl)-1H-pyrazol-5-yl)-N-(3-(pyridin-4-yl)propyl)butanamide]
Second: COC(=O)[C@H](CCCN=C(N)N)NC(=O)CCCc1cc(-c2cc(Cl)cc(Cl)c2)nn1-c1ccc2ccccc2c1 [(S)-2-{4-[5-(3,5-dichloro-phenyl)-2-naphthalen-2-yl-2H-pyrazol-3-yl]-butyrylamino}-5-guanidino-pentanoic acid methyl ester]
The IC50 of the first is 7.6-fold higher: 1.4 µM for the first, 0.185 µM for the second. The second is the more potent here.

For `COC(=O)[C@H](CCCN=C(N)N)NC(=O)CCNc1cc(-c2cc(Cl)cc(Cl)c2)nn1-c1ccc2ccccc2c1` [(S)-2-{3-[5-(3,5-dichloro-phenyl)-2-naphthalen-2-yl-2H-pyrazol-3-ylamino]-propionylamino}-5-guanidino-pentanoic acid methyl ester], the IC50 was 0.068 µM.
